This is an account of results in patent publication US20030228988A1, “Ozone solutions” (Otre AB, priority 2002, published 2003).

Where two headings read alike, the source gives them in different places.

Data set [1] can be described thus: Ozone stability in the presence of different surfactants (ozone electrode). The data set is classed as physicochemical. The note with it: ozone approximately 6 ppm, surfactant approximately 0.1 mM, approximately the same pH. The procedure:
Deionised water was used in all aqueous solutions. All experiments were made at room temperature, ˜23° C. The variation of the temperature between the different experiments was relatively small and should not have any significant effect on the outcome. All tests were made at least twice in order to verify the reproducibility. […] Magnetic stirrer was used to obtain a homogeneous solution. […] The concentration of the surfactants was approximately 0.1 mM. […] The solution was filtered to remove the formed precipitate, AgBr.

Data set [2] is described as follows: Ozone stability in the presence of different concentrations of SDS. The data set is classed as physicochemical. The note with it: 200 mM vs 0.1 mM SDS, ozone approximately 6 ppm. The protocol:
One of the surfactants, SDS, was tested at two different concentrations: Low concentration (0.1 mM), where the surfactant exists […], and high concentration (200 mM), where the surfactant exists in the form of both micelles and linear (paraffinic) chains. […] However, in order to obtain these states the surfactant solution has to be heated.
Magnetic stirrer was used to obtain a homogeneous solution.
SDS was added directly to the aqueous ozone solution, yielding solutions having concentrations of 0.1 mM and 200 mM with respect to SDS The result is seen in FIG. 4, namely that the higher concentration of SDS increases the lifetime of ozone by a factor 5 compared with the lower concentration.

Data set [3] is described as follows: Ozone stability in the presence of acetic and oxalic acid. As to conditions: for increase of the lifetime of the ozone (factor) compared with pure ozone solution: acid approximately 0.01M, ozone approximately 6 ppm. The protocol:
The following procedure was applied in the analysis of ozone concentration. Magnetic stirrer was used to obtain a homogeneous solution. The ozone concentration, pH and temperature were registered every 30 seconds, until ozone no longer could be detected.
An aqueous ozone solution with a concentration of approximately 6 ppm was tapped directly from the ozone generator into a beaker. The ozone electrode was used to register the changes in concentration. Acetic or oxalic acid was added directly to the solution. The concentration of the acids was approximately 0.01M.

Data set [4] can be described thus: Oxidation of organic acids by ozone, 13C NMR and IR before and after ozone treatment. The data set is classed as physicochemical. As to conditions: 0.1M acid bubbled with ozone for five hours. The protocol:
The aqueous solutions of the acids were analysed using ^13C NMR and IR spectroscopy before and after treatment with ozone.
In order to verify that the organic acids had not been oxidised by ozone an additional test was made 300 ml of an aqueous solution of acid (0.1M, 30×10^−3 mol) was bubbled with ozone for five hours. The gaseous concentration of ozone was ˜100 g/m^3. The airflow was 0 2 l/minute, which gives 1.2 g ozone/h ([…]). The aqueous solutions were analysed using ^13C NMR and IR spectroscopy before and after treatment with ozone. The results are shown in FIGS. 9-12, namely that the peaks in the spectrograms of the pure acid solutions (FIGS. 9 and 11) had not changed their appearance after prolonged treatment with ozone (FIGS. 10 and 12)

Regarding `CCCCCCCCCCCCOS(=O)(=O)[O-].[Na+]` [SDS, sodium dodecyl sulphate], in data set [1] (~23° C.), the “increase of the lifetime of ozone compared with a pure ozone solution” value was “three to four fold”. For the same molecule, the “increase of the lifetime of ozone (factor), higher concentration compared with the lower concentration” value in data set [2] is given as 5.
Turning to `O=C(O)C(=O)O` [oxalic acid], in data set [3] (FIGS. 5 and 6), the “effect on ozone stability” value is listed as “positive effect on ozone stability”. In addition, in data set [3], the “increase of the lifetime of the ozone (factor) compared with pure ozone solution” value amounted to 2. Moreover, in data set [4], the “decomposition / reaction of the acid after treatment with ozone (13C NMR, IR)” value is on record as “does not react with ozone”.
Turning to `CCCCCCCCCCCCO[C@@H]1O[C@H](CO)[C@@H](O[C@H]2O[C@H](CO)[C@@H](O)[C@H](O)[C@H]2O)[C@H](O)[C@H]1O` [dodecyl b-D-maltoside], the “depletion rate of ozone relative to the depletion rate of pure ozone solution” value in data set [1] is “about half”.
With `CC(=O)O` [Acetic acid, acetic acid], in data set [3], the “effect on ozone stability” value is given as “positive effect on ozone stability” and the “increase of the lifetime of the ozone (factor) compared with pure ozone solution” value stood at 2.
